SMILES | melting point
CC(=NO)c1cc2c3ccccc3[nH]c(=O)n2n1 | 340 to 342 °C
COc1ccc(NS(=O)(=O)c2cc(S(=O)(=O)Nc3ccc(OC)cc3C)c3cc(O)ccc3c2)c(C)c1 | 211 to 213 °C
Cc1cc2c(s1)Oc1ccccc1N=C2N1CCN(C)CC1 | 132 to 133 °C
CS(=O)(=O)N1CCN([C@@H](CNC(=O)c2ccc(OCc3ccncc3)cc2)C(=O)NO)CC1 | 213 °C
CC(=O)Nc1cccc(-c2nn3cnnc3cc2C)c1 | 298 to 301 °C
CCOC(=O)C(=NO)C(=O)OCC | 86.5 to 88 °C
CN(C)c1nc2cc(NC(=O)c3c(C(=O)O)cnn3C)ccn2n1 | > 250 °C
CCC1(CC)OC(c2ccc(S(C)(=O)=O)cc2)=C(c2ccccc2)C1=O | 139 to 140 °C
CN(C)S(=O)(=O)OCCOc1ccc(Cl)cc1 | 54 to 57 °C
O=C(Cl)C12CC(C(=O)Cl)(C1)C2 | 55 to 57 °C
O=[N+]([O-])c1cccc(Sc2ccc(-c3ccc(Br)cc3)s2)c1 | 120 to 122 °C
CN1CCN(C2=C3N=c4cc(Cl)ccc4=C3Oc3ccccc3N2C)CC1 | 187 to 188 °C
Cc1nc(NC(=O)c2ccccc2)sc1C(=O)NCC1CC1 | 163 to 166 °C
CCOC(=O)C(C(=O)OCC)=C1CSC2=C1SCCNC2 | 87 to 89 °C
COc1ccc(N=Nc2ccc(O)c(C(=O)Nc3ccc4[nH]ncc4c3)c2)cc1 | 276 to 277 °C
CCOCc1nc2c(N)nc3ccccc3c2n1CCc1cc(-c2ccc(F)cc2)no1 | 180 to 181 °C
COc1ccc(NC(=O)Cc2ccc(Cl)cc2)c(OC)c1 | 134 to 135 °C
CN(C)CCCNc1c(-c2ccccc2)c(=O)[nH]c2cc(Cl)ccc12 | 177 to 179 °C
O=C(NC(NC(=S)Nc1ccccc1)C(F)(F)F)c1ccc(Cl)cc1 (stereo not given) | 198 to 201 °C
CCN1C(=O)C2Cc3c([nH]c4ccccc34)C(c3ccc(N(C)C)cc3)N2C1=O (stereo not given) | 262 to 265 °C

SMILES | melting point
CC(=O)OC1CSC(Oc2ccc(C(C)=O)nc2)C(OC(C)=O)C1OC(C)=O (stereo not given) | 149 °C
Cn1c(C(F)(F)F)ccc(-c2c(F)cc(Cl)c3oc(CBr)cc23)c1=O | 142 to 144 °C
CS(=O)(=O)c1ccc(-n2nccc2-c2ccc(-c3ccco3)cc2)cc1F | 155 to 156 °C
CNn1cc(C(=O)O)c(=O)c2cc(F)c(F)c(F)c21 | 237 to 238 °C
COc1ccc2c(c1)C13CCCOC1(C)C(C2)N(C#N)CC3 (stereo not given) | 157 to 158 °C
O=C(O)COc1cccc(Cn2cc(C3c4ccccc4C=Cc4ccccc43)c(=S)[nH]c2=O)c1 | 148 to 155 °C
CS(=O)(=O)c1ccc(C(CC2CCCC2)C(=O)Nc2cnc(C(C#N)=NO)cn2)cc1Cl (stereo not given) | 130 to 133 °C
COc1ccc(Oc2c(N)cc(C(=O)O)cc2S)cc1 | 182 to 184 °C
NC(=O)C1C2C=CC(C2)C1Nc1c(Cl)cnc2[nH]c(-c3ccc4c(c3)CCC3(CCNCC3)O4)nc12 (stereo not given) | > 250 °C
C=CCN1N=C(c2ccc3c(c2)N(S(C)(=O)=O)CCO3)CCC1=O | 153 to 155 °C
CCn1cc2c(n1)c(=O)[nH]c1cc(OCc3ccccc3)ccc12 | 240 to 241 °C
CC(=O)SCC(Cc1ccccc1)C(=O)Nc1cc(C(=O)O)ccc1N1CCCCC1 (stereo not given) | 170 to 174 °C
O=C(O)C1CCc2c(c3ccccc3n2C(=O)c2cccc(C(F)(F)F)c2)C1 (stereo not given) | 173 to 175 °C
CCCCCCCCCCCCCCc1c[nH]c(C(=O)OC)c1 | 80 to 82 °C
Nc1ccccc1NC(=O)c1ccc(COC(=O)NCc2cccnc2)cc1 | 139 to 141 °C
CC1(C)CC(=O)c2c(C(=O)O)c[nH]c2C1 | 231 to 232 °C
CCCc1c(COc2ccc(Cc3nnn(CCCC(=O)O)n3)cc2)ccc(C(C)=O)c1O | 92 to 94 °C
Nc1c(F)c(N2CC[C@@H](C3(NCCO)CC3)C2)c(F)c2c1c(=O)c(C(=O)O)cn2[C@@H]1C[C@@H]1F | 198 to 200 °C
Clc1nc2c(-c3ccccc3)cccc2o1 | 85.8 °C
O=c1[nH]c(=O)c2cc3occoc3cc12 | 277 to 280 °C

Source: a melting point compilation (Tetko et al.; mined from patent text by program, amines drawn as free bases though some values may be those of a salt)
